# What was measured:
# [1] = test system: AR+LNCaP androgen-sensitive human prostate cancer cell line; assay: MTT cytotoxicity assay in presence of 1 nM DHT, 48 h incubation; assay type: cell-based; details: for IC50: Homo sapiens; for Selectivity AR-/AR+: IC50 PC-3 / IC50 LNCaP
# Method: (§1) The antitumor properties of pyrazolylmethylene-2-thioxoimidazolidin-4-one derivatives (3a–p) against androgen-sensitive (AR^+LNCaP; ATCC CRL-1740, Accession: CVCL_0395) and androgen-insensitive (AR^-PC-3; ATCC CRL-1435, Accession: CVCL_D5ZS) human prostate cancer cell lines in addition to normal human lung fibroblast cell line (Wi38, Accession: CVCL_2759) were evaluated by MTT assay. AR^+LNCaP, AR^-PC-3, and Wi38 cell lines were purchased frozen in liquid nitrogen from Egyptian Company for Production of Vaccines, Sera and Drugs, Cairo, Egypt (VACSERA). Tumor cell lines were stored as monolayer cultures in DMEM supplemented with 10% FBS and 1% penicillin–streptomycin. MTT assay was carried out as described previously in the literature. In brief, AR^+LNCaP, AR^-PC-3, and Wi38 cells were cultured into 96-well plates containing 100 µL of culture medium per each well. […] A control containing only culture medium was also applied. The assay was performed in triplicate. The cells were incubated overnight to grow at 37 °C in 5% CO2. After removing the growth medium, 100 µL of MTT (0.4 mg/mL of PBS) were added. After 24 h of incubation, the supernatant was removed and 100 µL of DMSO (Sigma Aldrich, Germany) were then added to each sample. Absorbance at 550 nm was measured. The formula (Reading of extract/Reading of negative control) × 100 was applied to calculate the viability percentage. The IC50 value of test compounds (3a–p) was also determined using CPE measurements of normal Wi38 cells (normal human lung fibroblast cells). The MTT assay was repeated with the test compounds (3i, 3k, 3o, 3j, 3p, and 3m) using the three cell types which were stimulated by 1 nM DHT after 48 h of incubation. IC50 values were estimated using Graph Pad Prism computer software (International Scientific Community, San Diego, CA, USA) from linear regression analysis of the concentration–response curves plotted for each tested compound [36].
# (§2) The assay was performed in the presence of dihydrotestosterone (1 nM DHT) for 48 h of incubation as previously described. DHT is a potent inducer of androgens that enhances prostate cancer disease progression.
# [2] = test system: Wi38 normal human lung fibroblast cell line; assay: as above; assay type: cell-based; details: WI-38, read-out: IC50 Wi38
# Method: as §1, §2
# [3] = test system: AR-PC-3 androgen-insensitive human prostate cancer cell line; assay: as above; assay type: cell-based
# Method: as §1, §2
# [4] = test system: AR+LNCaP androgen-sensitive human prostate cancer cell line; assay: MTT in vitro cytotoxicity assay, 24 h incubation; assay type: cell-based; details: for IC50: Homo sapiens, MTT; for Selective Index Wi38/Lncap: ratio of IC50 values
# Method: as §1
# (§3) In vitro cytotoxicity assay was performed to elucidate the antitumor properties of the synthesized derivatives of pyrazolylmethylene-2-thioxoimidazolidin-4-one. […] The cytotoxicity assay was performed using MTT assay as described in the Materials and Methods Section 2.4.1. The test compounds were dissolved in DMSO as stock solutions (<0.5% (v/v)) and stored in the dark at −20 °C. The human prostate cancer cells and normal human lung fibroblast cells were subjected to variable doses of the compounds for 24 h.
# [5] = test system: Wi38 normal human lung fibroblast cell line; assay: MTT in vitro cytotoxicity assay, 24 h incubation; assay type: cell-based; details: WI-38
# Method: as §1, §3
# [6] = test system: AR-PC-3 androgen-insensitive human prostate cancer cell line; assay: MTT in vitro cytotoxicity assay, 24 h incubation; assay type: cell-based; details: for IC50: Homo sapiens, MTT; for Selective Index Wi38/PC-3: ratio of IC50 values
# Method: as §1, §3
# AR+LNCaP cells [7] = assay: DNA content at cell cycle stages (Propidium Iodide flow cytometry); assay type: cell-based, human; details: IC50 concentration, 1 nM DHT
# Method: The amount of DNA contents of AR^+LNCaP cells stimulated with 1 nM DHT and treated with representative test compounds 3i and 3k at the different stages of the cell cycle were quantitatively evaluated as described previously. […] The Ab139418–Propidium Iodide Flow Cytometry Kit for Cell Cycle Analysis (ab139418, Abcam, Cambridge, UK) was employed for this assay following the procedures provided by the supplier.
# Firstly, the ab139418-Propidium Iodide Flow Cytometry Kit for Cell Cycle Analysis (Bio vision, Boston, MA, USA) was used to quantify DNA contents at each cell cycle stage as an indicator of the cell cycle growth arrest.
# [8] = test system: active human caspase-3 in AR+LNCaP cells; assay: Detection of active Caspase 3 in AR+LNCaP cell lysates (Invitrogen Elisa kit); assay type: cell-based; design: Caspase 3 Conc. (Average): unit not given here; details: for active Caspase 3 fold change compared to untreated cells / induction of active caspase 3 as a percentage of the reference drug Enzalutamide: IC50 concentration; for active Caspase 3 fold change compared to untreated cells: 1 nM DHT, AR+LNCaP lysate; for induction of active caspase 3 as a percentage of the reference drug Enzalutamide: AR+LNCaP; for Caspase 3 fld / Caspase 3: LNCaP, supplement lab report; for Caspase 3 fld: fold of control; for Caspase 3 Conc. (Average): supplement ELISA read-out, average of two wells
# Method: Untreated AR^+LNCaP and Enzalutamide-treated AR^+LNCaP were used as negative and positive controls, respectively. AR^+LNCaP cells were cultured in 96-well plates at a cell density of 1 × 10^4 cells/well. Cells were then lysed with 50 µL lysis buffer/well supplemented with the Invitrogen Elisa kit for detection of active human caspase-3 (Invitrogen, Camarillo, CA, USA). Plates were frozen at −80 °C for 30 min and then thawed. The lysate was mixed with 2 Z-DEVD-R110 substrate and incubated at room temperature for 30 min. A fluorescence microplate reader (Tecan, Mainz-Kastel, Germany), was used to measure fluorescence via excitation at 496 nm and emission detection at 520 nm. Values were normalized with total protein content. Active caspase 3 accumulation was determined based on standard dilution series of Human Caspase-3 samples provided with the kit. […]
# AR+LNCaP cells [9] = assay: Cell apoptosis assay (Annexin V-FITC, flow cytometry); assay type: cell-based, human; details: IC50 concentration, 1 nM DHT, 24 h
# Method: Cell apoptosis assay was performed to ensure the efficacy of compounds 3i and 3k against the progression of AR^+LNCaP tumor cell growth in the presence of 1 nM DHT. Untreated AR^+LNCaP and Enzalutamide-treated AR^+LNCaP were used in this assay as negative and positive controls, respectively. AR^+LNCaP cells were precultured in 25 cm^2 flasks. Briefly, 1 nM DHT was then added to the growing cells. […] AR^+LNCaP cells were harvested and fixed with 70% (v/v) ethanol in FBS (Sigma-Aldrich, Germany), then maintained at 4 °C overnight. The cells were resuspended in FBS containing 0.1% (v/v) Triton X-100, 40 µg/mL […], and 0.1 mg/mL RNase then incubated in a dark chamber at 37 °C for 30 min. A flow-cytometer (Becton Dickinson, San Jose, CA, USA) supplemented with an argon ion laser at a wavelength of 488 nm was used to analyze the AR^+LNCaP cell apoptotic stages. Based on the protocol described by Ozgur et al. (2003), analysis of the data was implemented using Multicycle Software (Phoenix Flow Systems, San Diego, CA, USA; http://www.phoenixflow.com/index.html).
# The active compounds 3i and 3k were further analyzed to evaluate their antitumor properties against the growth of the AR^+LNCaP prostate cancer cell line. […] Untreated AR^+LNCaP cells and Enzalutamide reference drug were also used as negative and positive controls in this assay, respectively.
Compound,melting point,IC50 [1],Selectivity AR-/AR+ [1],CC50 [2],IC50 [3],IC50 [4],Selective Index Wi38/Lncap [4],IC50 [5],IC50 [6],Selective Index Wi38/PC-3 [6],active Caspase 3 fold change compared to untreated cells [8],induction of active caspase 3 as a percentage of the reference drug Enzalutamide [8],Caspase 3 fld [8],Caspase 3 [8],Caspase 3 Conc. (Average) [8],further results
"O=C1NC(=S)NC1=Cc1cn(-c2ccc(F)cc2)nc1-c1ccc(Br)cc1 [Compound 3j, 5-((3-(4-Bromophenyl)-1-(4-fluorophenyl)-1H-pyrazol-4-yl)methylene)-2-thioxoimidazolidin-4-one]",199 to 201 °C,7.72 ± 0.15 µM,1.8,21.08 ± 0.06 µM,14.2 ± 0.15 µM,13.9 ± 0.14 µM,2.2,31.18 ± 0.16 µM,24.44 ± 0.12 µM,1.5,4.2 fold,63.0%,4.115,316.5 pg/mL,316.5,–
"O=C1NC(=S)NC1=Cc1cn(-c2ccc(C(F)(F)F)cc2)nc1-c1ccc(C(F)(F)F)cc1 [Compound 3p, 5-((1,3-Bis(4-(trifluoromethyl)phenyl)-1H-pyrazol-4-yl)methylene)-2-thioxoimidazolidin-4-one]",223 to 225 °C,5.91 ± 0.13 µM,2.7,20.18 ± 0.14 µM,15.2 ± 0.25 µM,12.11 ± 0.08 µM,2.1,25.35 ± 0.12 µM,23.2 ± 0.12 µM,1.0,4.4 fold,66.6%,4.351,334.6 pg/mL,334.6,–

# The next lines start with results.
melting point,Compound,IC50 [1],Selectivity AR-/AR+ [1],CC50 [2],IC50 [3],IC50 [4],Selective Index Wi38/Lncap [4],IC50 [5],IC50 [6],Selective Index Wi38/PC-3 [6],active Caspase 3 fold change compared to untreated cells [8],induction of active caspase 3 as a percentage of the reference drug Enzalutamide [8],Caspase 3 fld [8],Caspase 3 [8],Caspase 3 Conc. (Average) [8],further results
168 to 170 °C,"O=C1NC(=S)NC1=Cc1cn(-c2ccc(F)cc2)nc1-c1ccc(Cl)cc1 [Compound 3i, 5-((3-(4-Chlorophenyl)-1-(4-fluorophenyl)-1H-pyrazol-4-yl)methylene)-2-thioxoimidazolidin-4-one]",6.08 ± 0.04 µM,2.6,21.93 ± 0.14 µM,15.52 ± 0.12 µM,12.07 ± 0.09 µM,2.5,29.93 ± 0.12 µM,19.5 ± 0.21 µM,1.5,4.7 fold,71.4%,4.667,358.9 pg/mL,358.9,DNA Content (%) G0–G1 (AR+LNCaP cells [7]): 58.33%; DNA Content (%) G2/M (AR+LNCaP cells [7]): 22.48%; DNA Content (%) S (AR+LNCaP cells [7]): 19.19%; Early Apoptosis (%) (AR+LNCaP cells [9]): 11.47%; Late Apoptosis (%) (AR+LNCaP cells [9]): 7.55%; Necrotic Cells (%) (AR+LNCaP cells [9]): 2.77%; Total Apoptosis (%) (AR+LNCaP cells [9]): 21.79%
167 to 169 °C,"Cc1ccc(-c2nn(-c3ccc(F)cc3)cc2C=C2NC(=S)NC2=O)cc1 [Compound 3m, 5-((1-(4-Fluorophenyl)-3-(p-tolyl)-1H-pyrazol-4-yl)methylene)-2-thioxoimidazolidin-4-one]",10.5 ± 0.11 µM,1.3,23.33 ± 0.19 µM,13.1 ± 0.14 µM,12.97 ± 0.06 µM,2.4,30.54 ± 0.08 µM,22.5 ± 0.46 µM,1.3,3.2 fold,48.6%,3.176,244.3 pg/mL,244.3,–
205 to 207 °C,"O=C1NC(=S)NC1=Cc1cn(-c2ccc(C(F)(F)F)cc2)nc1-c1ccc(F)cc1 [Compound 3o, 5-((3-(4-Fluorophenyl)-1-(4-(trifluoromethyl)phenyl)-1H-pyrazol-4-yl)methylene)-2-thioxoimidazolidin-4-one]",11.75 ± 0.07 µM,1.4,22.35 ± 0.13 µM,16.4 ± 0.17 µM,12.66 ± 0.11 µM,2.0,25.08 ± 0.08 µM,21.08 ± 0.1 µM,1.2,3.5 fold,53.4%,3.490,268.4 pg/mL,268.4,–

# — PMC11274643, “Design, Synthesis, Characterization, and Cytotoxicity of New Pyrazolylmethylene-2-thioxoimidazolidin-4-one Derivatives towards Androgen-Sensitive LNCaP Prostate Cancer Cells” (Biomolecules, 2024)
